According to patent US20080312192A1, “Diaryl Urea Derivatives in the Treatment of Protein Kinase Dependent Diseases” (priority 2003, published 2008):
pIC50: −log10 of the molar value. Counter-ions that a name gives are not always drawn.

Molecular target: T1, Flt-3 (Homo sapiens, UniProt P36888)
T1 construct: amino acids 563-993 of the cytoplasmic kinase domain of human Flt-3; made in house; host or cells: Sf9 insect cells (baculovirus, vector pFbacG01)
T1 sequence (P36888 563-993): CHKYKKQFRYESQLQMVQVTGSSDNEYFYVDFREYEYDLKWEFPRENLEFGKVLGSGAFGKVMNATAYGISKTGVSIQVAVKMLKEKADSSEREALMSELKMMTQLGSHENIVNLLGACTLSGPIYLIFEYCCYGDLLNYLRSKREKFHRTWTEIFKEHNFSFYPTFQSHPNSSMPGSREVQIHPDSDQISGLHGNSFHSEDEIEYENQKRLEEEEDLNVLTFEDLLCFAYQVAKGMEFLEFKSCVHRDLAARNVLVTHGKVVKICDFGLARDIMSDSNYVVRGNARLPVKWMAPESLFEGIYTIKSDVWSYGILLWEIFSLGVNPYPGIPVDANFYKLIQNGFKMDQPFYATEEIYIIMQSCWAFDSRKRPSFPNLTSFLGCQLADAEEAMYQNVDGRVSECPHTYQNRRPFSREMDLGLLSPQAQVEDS
Test: Flt-3 kinase inhibition (GST-Flt-3, 33P incorporation into poly(Glu,Tyr))
Type: biochemical
Description: Flt-3 kinase inhibition is determined as follows: The baculovirus donor vector pFbacG01 (GIBCO) is used to generate a recombinant baculovirus expressing the amino acid region amino acids 563-993 of the cytoplasmic kinase domain of human Flt-3. The coding sequence for the cytoplasmic domain of Flt-3 is amplified by PCR from human c-DNA libraries (Clontech). The amplified DNA fragments and the pFbacG01 vector are made compatible for ligation by digestion with BamHI and HindIII. Ligation of these DNA fragments results in the baculovirus donor plasmid pFbacG01-Flt-3. The production of the viruses, the expression of proteins in Sf9 cells and the purification of the GST-fused proteins are performed as follows:
Production of virus: The baculovirus donor plasmid (pFbacG01-Flt-3) containing the Flt-3 kinase domain is transfected into the DH10Bac cell line (GIBCO) and the transfected cells are plated on selective agar plates. Colonies without insertion of the fusion sequence into the viral genome (carried by the bacteria) are blue. Single white colonies are picked and viral DNA (bacmid) is isolated from the bacteria by standard plasmid purification procedures. Sf9 or Sf21 cells (American Type Culture Collection) are then transfected in flasks with the viral DNA using Cellfectin reagent.
Protein expression in Sf9 cells: Virus containing media is collected from the transfected cell culture and used for infection to increase its titre. Virus containing media obtained after two rounds of infection is used for large-scale protein expression. For large-scale protein expression 100 cm^2 round tissue culture plates are seeded with 5×10^7 cells/plate and infected with 1 mL of virus-containing media (approx. 5 MOIs). After 3 days the cells are scraped off the plate and centrifuged at 500 rpm for 5 min. Cell pellets from 10-20, 100 cm^2 plates are resuspended in 50 mL of ice-cold lysis buffer (25 mM Tris-HCl, pH 7.5, 2 mM EDTA-1% NP-40. 1 mM DTT, 1 mM PMSF). The cells are stirred on ice for 15 min and then centrifuged at 5000 rpms for 20 min.
Purification of GST-tagged protein: The centrifuged cell lysate is loaded onto a 2 mL glutathione-sepharose column (Pharmacia) and washed three times with 10 mL of 25 mM Tris-HCl, pH 7.5, 2 mM EDTA, 1 mM DTT, 200 mM NaCl. The GST-tagged protein is then eluted by 10 applications (1 mL each) of 25 mM Tris-HCl, pH 7.5, 10 mM reduced-glutathione, 100 mM NaCl, 1 mM DTT, 10% Glycerol and stored at −70° C.
Measurement of enzyme activity: Tyrosine protein kinase assays with purified GST-Flt-3 protein are carried out in a final volume of 30 μL containing 200-1800 ng of enzyme protein (depending on the specific activity), 20 mM Tris-HCl, pH 7.6, 3 mM MnCl2, 3 mM MgCl2, 1 mM DTT, 10 μM Na3VO4, 3 μg/mL poly(Glu, Tyr) 4:1, 1% DMSO, 8.0 μM ATP and 0.1 μCi [γ^33 P] ATP. The activity is assayed in the presence or absence of inhibitors, by measuring the incorporation of ^33P from [γ^33P] ATP into the poly(Glu,Tyr) substrate. The assay (30 μL) is carried out in 96-well plates at ambient temperature for 20 min and terminated by the addition of 20 μL of 125 mM EDTA. Subsequently, 40 μL of the reaction mixture is transferred onto Immobilon-PVDF membrane (Millipore, Bedford, Mass., USA) previously soaked for 5 min with methanol, rinsed with water, then soaked for 5 min with 0.5% H3PO4 and mounted on vacuum manifold with disconnected vacuum source. After spotting all samples, vacuum is connected and each well rinsed with 200 μL 0.5% H3PO4. Membranes are removed and washed 4× on a shaker with 1.0% H3PO4, once with ethanol. Membranes are counted after drying at ambient temperature, mounting in Packard TopCount 96-well frame, and addition of 10 μL/well of Microscint™ (Packard). IC50 values are calculated by linear regression analysis of the percentage inhibition of each compound in duplicate, at four concentrations (usually 0.01, 0.1, 1 and 10 μM). One unit of protein kinase activity is defined as 1 nmole of ^33P transferred from [γ3P] […]

pIC50	Structure (SMILES)
7.10	Cc1nccn1Cc1ccc(NC(=O)Nc2ccc(Oc3cc(N)ncn3)cc2)cc1C(F)(F)F [Example 34e.3]
6.52	CCN1CCN(Cc2ccc(NC(=O)Nc3ccc(Oc4cc(NC)ncn4)cc3)cc2C)CC1 [Example 34g.1]
6.42	CCN1CCN(Cc2ccc(NC(=O)Nc3ccc(Oc4cc(N)ncn4)cc3)cc2C)CC1 [Example 34g.3]
6.60	CNc1cc(Oc2ccc(NC(=O)Nc3ccc(CN4CCCC4)c(C(F)(F)F)c3)cc2)ncn1 [Example 34j.1]
6.55	Nc1cc(Oc2ccc(NC(=O)Nc3ccc(CN4CCCC4)c(C(F)(F)F)c3)cc2)ncn1 [Example 34j.3]
6.89	CNc1cc(Oc2ccc(NC(=O)Nc3ccc(CN4CCOCC4)c(C(F)(F)F)c3)cc2)ncn1 [Example 34k.1]
7.00	Nc1cc(Oc2ccc(NC(=O)Nc3ccc(CN4CCOCC4)c(C(F)(F)F)c3)cc2)ncn1 [Example 34k.3]
6.21	CNc1cc(Oc2ccc(NC(=O)Nc3ccc(CN(C)C)c(C(F)(F)F)c3)cc2)ncn1 [Example 34l.1]
6.40	CCN(CC)Cc1ccc(NC(=O)Nc2ccc(Oc3cc(NC)ncn3)cc2)cc1C(F)(F)F [Example 34m.1]
6.70	CCN(CC)Cc1ccc(NC(=O)Nc2ccc(Oc3cc(N)ncn3)cc2)cc1C(F)(F)F [Example 34m.3]
6.70	CN(C)CCCN(C)Cc1ccc(NC(=O)Nc2ccc(Oc3cc(N)ncn3)cc2)cc1C(F)(F)F [Example 34n.3]
6.23	CNc1cc(Oc2ccc(NC(=O)Nc3ccc(CN4CCN(Cc5ccc(OC)cc5)CC4)c(C(F)(F)F)c3)cc2)ncn1 [Example 34p.1]
6.62	Nc1cc(Oc2ccc(NC(=O)Nc3ccc(N4CCC(N5CCCCC5)CC4)c(C(F)(F)F)c3)cc2)ncn1 [Example 34s.2]
6.54	CC(C)(C)CN1CCN(Cc2ccc(NC(=O)Nc3ccc(Oc4cc(N)ncn4)cc3)cc2C(F)(F)F)CC1 [Example 34t.2]
5.82	CC(C)(C)CN1CCN(c2ccc(NC(=O)Nc3ccc(Oc4cc(N)ncn4)cc3)cc2C(F)(F)F)CC1 [Example 34u.2]
6.45	NC(=O)c1cc(NC(=O)Nc2ccc(Oc3cc(N)ncn3)cc2)cc(C(F)(F)F)c1 [Example 38, 3-{3-[4-(6-Amino-pyrimidin-4-yloxy)-phenyl]-ureido}-5-trifluoromethyl-benzamide]
6.38	CNC(=O)c1cc(NC(=O)Nc2ccc(Oc3cc(NC)ncn3)cc2)cc(C(F)(F)F)c1 [Example 41, 3-{3-[4-(6-Methylamino-pyrimidin-4-yloxy)-phenyl]-ureido}-N-methyl-5-trifluoromethyl-benzamide]
6.80	CNC(=O)c1cc(NC(=O)Nc2ccc(Oc3cc(N)ncn3)cc2)cc(C(F)(F)F)c1 [Example 43, 3-{3-[4-(6-Amino-pyrimidin-4-yloxy)-phenyl]-ureido}-N-methyl-5-trifluoromethyl-benzamide]

The remaining lines, values behind:

Structure (SMILES)	pIC50
O=C(Nc1ccc(Oc2cc(Cl)ncn2)cc1)Nc1cc(CN2CCC2)cc(C(F)(F)F)c1 [Example 1, N-[4-(6-Chloro-pyrimidin-4-yloxy)-phenyl]-N′-[3-(azetidin-1-ylmethyl)-5-trifluoromethyl-phenyl]-urea]	6.04
CNc1cc(Oc2ccc(NC(=O)Nc3cc(CN4CCC4)cc(C(F)(F)F)c3)cc2)ncn1 [Example 2, N-[4-(6-Methylamino-pyrimidin-4-yloxy)-phenyl]-N′-(3-azetidin-1-ylmethyl-5-trifluoromethyl-phenyl)-urea]	5.92
CC(C)N1CCN(Cc2cc(NC(=O)Nc3ccc(Oc4cc(N)ncn4)cc3)cc(C(F)(F)F)c2)CC1 [Example 8, N-[4-(6-Amino-pyrimidin-4-yloxy)-phenyl]-N′-[3-(4-isopropylpiperazin-1-ylmethyl)-5-trifluoromethyl-phenyl]-urea]	6.29
CN1CCN(Cc2ccc(NC(=O)Nc3ccc(Oc4cc(Cl)ncn4)cc3)cc2C(F)(F)F)CC1 [Example 14, N-[4-(6-Chloro-pyrimidin-4-yloxy)-phenyl]-N′-[4-(4-methylpiperazin-1-ylmethyl)-3-trifluoromethyl-phenyl]-urea]	6.44
CC(C)N1CCN(Cc2ccc(NC(=O)Nc3ccc(Oc4cc(Cl)ncn4)cc3)cc2C(F)(F)F)CC1 [Example 15, N-[4-(6-Chloro-pyrimidin-4-yloxy)-phenyl]-N′-[4-(4-isopropylpiperazin-1-ylmethyl)-3-trifluoromethyl-phenyl]-urea]	6.22
CNc1cc(Oc2ccc(NC(=O)Nc3ccc(CN4CCN(C(C)C)CC4)c(C(F)(F)F)c3)cc2)ncn1 [Example 16, N-[4-(6-Methylamino-pyrimidin-4-yloxy)-phenyl]-N′-[4-(4-isopropylpiperazin-1-ylmethyl)-3-trifluoromethyl-phenyl]-urea trifluoroacetate]	6.44
CNc1cc(Oc2ccc(NC(=O)Nc3ccc(CN4CC[N+]([O-])(C(C)C)CC4)c(C(F)(F)F)c3)cc2)ncn1 [Example 17, N-[4-(6-Methylamino-pyrimidin-4-yloxy)-phenyl]-N′-[4-(4-isopropyl-4-oxy-piperazin-1-ylmethyl)-3-trifluoromethyl-phenyl]-urea trifluoroacetate]	6.03
CN(Cc1ccc(NC(=O)Nc2ccc(Oc3cc(Cl)ncn3)cc2)cc1C(F)(F)F)C(C)(C)C [Example 21, N-[4-(6-Chloro-pyrimidin-4-yloxy)-phenyl]-N′-[4-(methyl-^tertbutyl-amino-methyl)-3-trifluoromethyl-phenyl]-urea]	5.74
CNc1cc(Oc2ccc(NC(=O)Nc3ccc(CN(C)C(C)(C)C)c(C(F)(F)F)c3)cc2)ncn1 [Example 34a.1]	5.96
CN(Cc1ccc(NC(=O)Nc2ccc(Oc3cc(N)ncn3)cc2)cc1C(F)(F)F)C(C)(C)C [Example 34a.3]	6.08
CNc1cc(Oc2ccc(NC(=O)Nc3ccc(CN4CCC4)c(C(F)(F)F)c3)cc2)ncn1 [Example 34b.1]	6.44
Nc1cc(Oc2ccc(NC(=O)Nc3ccc(CN4CCC4)c(C(F)(F)F)c3)cc2)ncn1 [Example 34b.3]	6.43
CNc1cc(Oc2ccc(NC(=O)Nc3ccc(CN4CCN(C(C)(C)C)CC4)c(C(F)(F)F)c3)cc2)ncn1 [Example 34c.1]	6.27
CC(C)(C)N1CCN(Cc2ccc(NC(=O)Nc3ccc(Oc4cc(N)ncn4)cc3)cc2C(F)(F)F)CC1 [Example 34c.3]	6.46
CNc1cc(Oc2ccc(NC(=O)Nc3ccc(Cn4cnc(C)c4C)c(C(F)(F)F)c3)cc2)ncn1 [Example 34d.1]	6.17
Cc1ncn(Cc2ccc(NC(=O)Nc3ccc(Oc4cc(N)ncn4)cc3)cc2C(F)(F)F)c1C [Example 34d.3]	6.54
CNc1cc(Oc2ccc(NC(=O)Nc3ccc(Cn4ccnc4C)c(C(F)(F)F)c3)cc2)ncn1 [Example 34e.1]	6.80
